According to paper PMC10291282, “Synthesis, ADMT prediction, and in vitro and in silico α-glucosidase inhibition evaluations of new quinoline–quinazolinone–thioacetamides” (RSC Advances, 2023):
Read-outs that look alike come from different tables or passages of the source.

Key:
α-glucosidase [1] = molecular target: T1, α-glucosidase (Saccharomyces cerevisiae, UniProt P53341); test: biochemical; assay type: biochemical; settings: for anti-α-glucosidase activity in words: in comparison to acarbose; for decrease of inhibitory activity relative to compound 9g: replacement or removal of 4-OH of 9g
T1 construct: purchased Sigma-Aldrich
Procedure: Yeast form of α-glucosidase (EC3.2.1.20, Saccharomyces cerevisiae, 20 U mg^−1) and p-nitrophenyl glucopyranoside as substrate were purchased from Sigma-Aldrich. […] IC50 values were calculated by the percentage of enzyme inhibition and non-linear regression curve using the logit method.

α-glucosidase [2] = molecular target: T1, α-glucosidase; test: Enzyme kinetics study for α-glucosidase inhibition; assay type: biochemical
Procedure: The 20 μL of α-glucosidase solution (1 U mL^−1) was incubated with different concentrations of compound 9g (0, 2.25, 4.5, and 9 μM) for 15 min at 30 °C. After that, the enzymatic reaction was started by adding different concentrations of p-nitrophenyl glucopyranoside (substrate, 1–4 mM), and change in absorbance was measured for 20 min at 405 nm by spectrophotometer (Gen5, Power Wave xs2, BioTek, America).

α-glucosidase [3] = settings: read-out: IC50 against α-glucosidase; Fig. 1, template A study; cited from earlier work
α-glucosidase [4] = test: Literature α-glucosidase inhibition of quinoline template A; assay type: biochemical; settings: template A vs acarbose of that study
α-glucosidase [5] = molecular target: α-glucosidase; set-up: method as in PMID 28110817; settings: Fig. 1, template B study; read-out: IC50 against α-glucosidase; cited from earlier work
[6] = yeast α-glucosidase, p-nitrophenyl glucopyranoside substrate, pH 6.8, 37 °C, mean ± SD, read-out: IC50 against α-glucosidase

T1 sequence (P53341 whole entry): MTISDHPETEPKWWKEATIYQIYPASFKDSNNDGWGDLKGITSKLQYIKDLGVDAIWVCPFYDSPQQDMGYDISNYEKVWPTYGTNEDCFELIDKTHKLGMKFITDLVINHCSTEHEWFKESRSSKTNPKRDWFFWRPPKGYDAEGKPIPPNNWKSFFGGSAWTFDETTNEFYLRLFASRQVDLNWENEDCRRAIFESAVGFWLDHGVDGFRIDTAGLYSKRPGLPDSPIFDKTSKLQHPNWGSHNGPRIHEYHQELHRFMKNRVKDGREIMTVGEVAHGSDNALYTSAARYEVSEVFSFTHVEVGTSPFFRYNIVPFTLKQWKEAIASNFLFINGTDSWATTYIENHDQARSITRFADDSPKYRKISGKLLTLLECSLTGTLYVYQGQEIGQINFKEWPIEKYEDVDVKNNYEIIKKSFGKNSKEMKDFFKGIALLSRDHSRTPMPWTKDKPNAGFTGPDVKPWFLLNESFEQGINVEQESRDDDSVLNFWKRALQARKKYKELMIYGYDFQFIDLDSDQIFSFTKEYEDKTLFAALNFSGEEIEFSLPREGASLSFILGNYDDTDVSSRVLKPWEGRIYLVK

Structure (SMILES) | melting point [°C] | anti-α-glucosidase activity in words (α-glucosidase [1]) | IC50 (α-glucosidase [1]; [6]) [µM] | also measured
O=C(CSc1nc2ccccc2cc1-c1nc2ccccc2c(=O)[nH]1)Nc1ccccc1F [9h, N-(2-Fluorophenyl)-2-{[3-(4-oxo-3,4-dihydroquinazolin-2-yl)quinolin-2-yl]thio}acetamide] | 209 to 211 | eradicated inhibitory activity | > 750 | 
Cc1cccc(NC(=O)CSc2nc3ccccc3cc2-c2nc3ccccc3c(=O)[nH]2)c1C [9c, N-(2,3-Dimethylphenyl)-2-{[3-(4-oxo-3,4-dihydroquinazolin-2-yl)quinolin-2-yl]thio}acetamide] | 208 to 210 |  | > 750 | 
O=C(CSc1nc2ccccc2cc1-c1nc2ccccc2c(=O)[nH]1)Nc1ccc([N+](=O)[O-])cc1 [9m, N-(4-Nitrophenyl)-2-{[3-(4-oxo-3,4-dihydroquinazolin-2-yl)quinolin-2-yl]thio}acetamide] | 217 to 219 | potent members | 52 ± 1.4 | 
COc1ccc(NC(=O)CSc2nc3ccccc3cc2-c2nc3ccccc3c(=O)[nH]2)cc1 [9f, N-(4-Methoxyphenyl)-2-{[3-(4-oxo-3,4-dihydroquinazolin-2-yl)quinolin-2-yl]thio}acetamide] | 203 to 205 | potent members |  | IC50 (α-glucosidase [1]): 37.7 ± 2.9 µM; decrease of inhibitory activity relative to compound 9g (α-glucosidase [1]): 4.1 fold
O=C(CSc1nc2ccccc2cc1-c1nc2ccccc2c(=O)[nH]1)Nc1ccc(Cl)cc1 [9k, N-(4-Chlorophenyl)-2-{[3-(4-oxo-3,4-dihydroquinazolin-2-yl)quinolin-2-yl]thio}acetamide] | 209 to 211 | potent members | 40.1 ± 1.2 | 
O=C(CSc1nc2ccccc2cc1-c1nc2ccccc2c(=O)[nH]1)Nc1ccc(F)cc1 [9i, N-(4-Fluorophenyl)-2-{[3-(4-oxo-3,4-dihydroquinazolin-2-yl)quinolin-2-yl]thio}acetamide] | 206 to 208 | eradicated inhibitory activity | > 750 | 
O=C(CSc1nc2ccccc2cc1-c1nc2ccccc2c(=O)[nH]1)Nc1cccc(Cl)c1 [9j, N-(3-Chlorophenyl)-2-{[3-(4-oxo-3,4-dihydroquinazolin-2-yl)quinolin-2-yl]thio}acetamide] | 212 to 214 | potent members | 53.4 ± 2.3 | 
O=C(CSc1nc2ccccc2cc1-c1nc2ccccc2c(=O)[nH]1)NCc1ccccc1 [9n, N-Benzyl-2-{[3-(4-oxo-3,4-dihydroquinazolin-2-yl)quinolin-2-yl]thio}acetamide] | 201 to 203 |  | > 750 | 
Cc1ccc(NC(=O)CSc2nc3ccccc3cc2-c2nc3ccccc3c(=O)[nH]2)cc1 [9b, 2-{[3-(4-Oxo-3,4-dihydroquinazolin-2-yl)quinolin-2-yl]thio}-N-(p-tolyl)acetamide] | 203 to 205 |  | > 750 | 
CCc1ccc(NC(=O)CSc2nc3ccccc3cc2-c2nc3ccccc3c(=O)[nH]2)cc1 [9e, N-(4-Ethylphenyl)-2-{[3-(4-oxo-3,4-dihydroquinazolin-2-yl)quinolin-2-yl]thio}acetamide] | 208 to 210 |  | > 750 | 
Cc1ccc(CNC(=O)CSc2nc3ccccc3cc2-c2nc3ccccc3c(=O)[nH]2)cc1 [9o, N-(4-Methylbenzyl)-2-{[3-(4-oxo-3,4-dihydroquinazolin-2-yl)quinolin-2-yl]thio}acetamide] | 202 to 204 |  | > 750 | 
O=C(CSc1nc2ccccc2cc1-c1nc2ccccc2c(=O)[nH]1)Nc1ccc(Br)cc1 [9l, N-(4-Bromophenyl)-2-{[3-(4-oxo-3,4-dihydroquinazolin-2-yl)quinolin-2-yl]thio}acetamide] | 208 to 210 | eradicated inhibitory activity | > 750 | 
O=C(CSc1nc2ccccc2cc1-c1nc2ccccc2c(=O)[nH]1)Nc1ccc(O)cc1 [9g, N-(4-Hydroxyphenyl)-2-{[3-(4-oxo-3,4-dihydroquinazolin-2-yl)quinolin-2-yl]thio}acetamide] | 210 to 212 | potent members | 9 ± 0.3 | type of inhibition (α-glucosidase [2]; Lineweaver–Burk plots): competitive; Ki (α-glucosidase [2]; secondary re-plot of Lineweaver–Burk plots, 0, 2.25, 4.5, 9.0 μM inhibitor): 7 µM; fold more potent than the most potent compound among template compounds C (α-glucosidase [1]; comparison with literature compounds C): 8.8 fold
O=C(CSc1nc2ccccc2cc1-c1nc2ccccc2c(=O)[nH]1)NCc1ccc(F)cc1 [9p, N-(4-Fluorobenzyl)-2-{[3-(4-oxo-3,4-dihydroquinazolin-2-yl)quinolin-2-yl]thio}acetamide] | 205 to 207 |  | > 750 | 
O=C(O)c1ccc2ccccc2n1 [Compound A] |  |  |  | IC50 (α-glucosidase [3]): 9.1 ± 2.3 µM; fold more potent than acarbose (α-glucosidase [4]): 7.3 fold
Cc1cccc(C)c1NC(=O)CSc1nc2ccccc2cc1-c1nc2ccccc2c(=O)[nH]1 [9d, N-(2,6-Dimethylphenyl)-2-{[3-(4-oxo-3,4-dihydroquinazolin-2-yl)quinolin-2-yl]thio}acetamide] | 220 to 222 |  | > 750 | 
O=c1[nH]c(-c2ccc(Cl)cc2)nc2ccccc12 [Compound B] |  |  |  | IC50 (α-glucosidase [5]): 12.5 ± 0.1 µM
O=C(CSc1nc2ccccc2cc1-c1nc2ccccc2c(=O)[nH]1)Nc1ccccc1 [9a, 2-{[3-(4-Oxo-3,4-dihydroquinazolin-2-yl)quinolin-2-yl]thio}-N-phenylacetamide] | 200 to 202 | potent members | 25.8 ± 0.6 | decrease of inhibitory activity relative to compound 9g (α-glucosidase [1]): 2.8 fold
